molecular target: human PDE10A (Homo sapiens (Human), UniProt Q9Y233); experiment: human PDE10A full length Scintillation Proximity Assay (SPA); format: biochemical; settings: 50 nM cGMP and 50 nM [3H]-cGMP, 20 minutes at room temperature; read-out: PDE10A inhibition IC50
Outline: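 Radiometric SPA read-out: after 20 min at room temperature with [^3H]-cGMP/cGMP substrate, zinc sulphate (18 mM) bead stop reagent added and counts read after 1 h. Non-specific signal defined without enzyme; full-length protein used.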

Chain of human PDE10A (Q9Y233 other isoform, or with tags, fused parts or gaps): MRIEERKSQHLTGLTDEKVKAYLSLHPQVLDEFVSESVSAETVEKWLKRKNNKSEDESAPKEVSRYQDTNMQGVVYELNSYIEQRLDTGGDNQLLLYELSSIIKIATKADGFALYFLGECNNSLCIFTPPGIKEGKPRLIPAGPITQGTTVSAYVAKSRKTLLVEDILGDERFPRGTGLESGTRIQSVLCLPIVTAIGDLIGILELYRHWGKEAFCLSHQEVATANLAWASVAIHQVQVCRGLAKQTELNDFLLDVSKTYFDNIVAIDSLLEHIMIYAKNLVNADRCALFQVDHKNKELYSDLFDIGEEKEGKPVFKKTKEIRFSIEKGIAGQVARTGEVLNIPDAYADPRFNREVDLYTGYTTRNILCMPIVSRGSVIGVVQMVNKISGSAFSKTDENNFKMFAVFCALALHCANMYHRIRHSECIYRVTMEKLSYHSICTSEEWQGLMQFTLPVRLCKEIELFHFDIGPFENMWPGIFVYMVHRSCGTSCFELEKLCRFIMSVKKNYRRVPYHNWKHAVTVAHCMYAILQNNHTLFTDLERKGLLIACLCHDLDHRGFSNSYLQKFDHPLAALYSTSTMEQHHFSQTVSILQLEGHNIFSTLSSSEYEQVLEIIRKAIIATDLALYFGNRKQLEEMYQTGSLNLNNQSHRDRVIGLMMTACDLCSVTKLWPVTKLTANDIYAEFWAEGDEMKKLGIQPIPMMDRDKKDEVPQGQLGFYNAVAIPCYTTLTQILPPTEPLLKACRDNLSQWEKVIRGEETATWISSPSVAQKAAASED

Structure (SMILES) | IC50 [nM]
CNC(=O)c1c(NC(=O)c2nc(COC)ccc2Nc2cncnc2)cnn1C [Example 189, 6-Methoxymethyl-3-(pyrimidin-5-ylamino)-pyridine-2-carboxylic acid (1-methyl-5-methylcarbamoyl-1H-pyrazol-4-yl)-amide] | 144
CNC(=O)c1c(NC(=O)c2nc(C(C)C)ncc2Nc2cncc(F)c2)cnn1C [Example 190, 5-(5-Fluoro-pyridin-3-ylamino)-2-isopropyl-pyrimidine-4-carboxylic acid (1-methyl-5-methylcarbamoyl-1H-pyrazol-4-yl)-amide] | 24
CNC(=O)c1c(NC(=O)c2nc(C(C)C)ncc2Nc2ccc(F)cc2)cnn1C [Example 191, 5-(4-Fluoro-phenylamino)-2-isopropyl-pyrimidine-4-carboxylic acid (1-methyl-5-methylcarbamoyl-1H-pyrazol-4-yl)-amide] | 470
CNC(=O)c1c(NC(=O)c2nc(C3CC3)cnc2Nc2cncnc2)cccc1OC [Example 192, 6-Cyclopropyl-3-(pyrimidin-5-ylamino)-pyrazine-2-carboxylic acid (3-methoxy-2-methylcarbamoyl-phenyl)-amide] | 3.1
CNC(=O)c1c(NC(=O)c2nc(C3CCC3)ncc2Nc2cncnc2)cnn1C [Example 193, 2-Cyclobutyl-5-(pyrimidin-5-ylamino)-pyrimidine-4-carboxylic acid (1-methyl-5-methylcarbamoyl-1H-pyrazol-4-yl)-amide] | 11.7
CNC(=O)c1c(Cl)cccc1NC(=O)c1nc(C2CC2)cnc1Nc1cncnc1 [Example 196, 6-Cyclopropyl-3-(pyrimidin-5-ylamino)-pyrazine-2-carboxylic acid (3-chloro-2-methylcarbamoyl-phenyl)-amide] | 22
CCNC(=O)c1c(NC(=O)c2nc(C3CC3)cnc2Nc2cncnc2)cnn1C [Example 197, 6-Cyclopropyl-3-(pyrimidin-5-ylamino)-pyrazine-2-carboxylic acid (5-ethylcarbamoyl-1-methyl-1H-pyrazol-4-yl)-amide] | 3.9
CNC(=O)c1c(NC(=O)c2nc(C3CC3)cnc2Nc2cnccn2)cnn1C [Example 200, 6-Cyclopropyl-3-(pyrazin-2-ylamino)-pyrazine-2-carboxylic acid (1-methyl-5-methylcarbamoyl-1H-pyrazol-4-yl)-amide] | 426
CCNC(=O)c1c(NC(=O)c2nc(C3CC3)cnc2Nc2cncnc2)cnn1CC [Example 201, 6-Cyclopropyl-3-(pyrimidin-5-ylamino)-pyrazine-2-carboxylic acid (1-ethyl-5-ethylcarbamoyl-1H-pyrazol-4-yl)-amide] | 11.5
CCn1ncc(NC(=O)c2nc(C3CC3)cnc2Nc2cncnc2)c1C(=O)NCC(C)C [Example 202, 6-Cyclopropyl-3-(pyrimidin-5-ylamino)-pyrazine-2-carboxylic acid (1-ethyl-5-isobutylcarbamoyl-1H-pyrazol-4-yl)-amide] | 3.8
CCN(C)C(=O)c1c(NC(=O)c2nc(C3CC3)cnc2Nc2cncnc2)cnn1C [Example 203, 6-Cyclopropyl-3-(pyrimidin-5-ylamino)-pyrazine-2-carboxylic acid [5-(ethyl-methyl-carbamoyl)-1-methyl-1H-pyrazol-4-yl]-amide] | 33.8
CCN(C)C(=O)c1ncncc1NC(=O)c1nc(C2CC2)cnc1Nc1cncnc1 [Example 204, 5-{[6-Cyclopropyl-3-(pyrimidin-5-ylamino)-pyrazine-2-carbonyl]-amino}-pyrimidine-4-carboxylic acid ethyl-methyl-amide] | 52.5
CN(C)C(=O)c1ncncc1NC(=O)c1nc(C2CC2)cnc1Nc1cncnc1 [Example 205, 5-{[6-Cyclopropyl-3-(pyrimidin-5-ylamino)-pyrazine-2-carbonyl]-amino}-pyrimidine-4-carboxylic acid dimethylamide] | 90.1
COc1cccc(NC(=O)c2nc(C3CC3)cnc2Nc2cncnc2)c1C(=O)N(C)C [Example 206, 6-Cyclopropyl-3-(pyrimidin-5-ylamino)-pyrazine-2-carboxylic acid (2-dimethylcarbamoyl-3-methoxy-phenyl)-amide] | 12.2
CC(C)c1ccc(NC(=O)c2nc(C3CC3)cnc2Nc2cncnc2)c(C(=O)NCC(C)(C)O)c1 [Example 207, 6-Cyclopropyl-3-(pyrimidin-5-ylamino)-pyrazine-2-carboxylic acid [2-(2-hydroxy-2-methyl-propylcarbamoyl)-4-isopropyl-phenyl]-amide] | 1.1
CNC(=O)c1cc(C(C)C)ccc1NC(=O)c1nc(C2CC2)cnc1Nc1cncnc1 [Example 208, 6-Cyclopropyl-3-(pyrimidin-5-ylamino)-pyrazine-2-carboxylic acid (4-isopropyl-2-methylcarbamoyl-phenyl)-amide] | 1.3
CNC(=O)c1nc(COC)ccc1NC(=O)c1nc(C2CC2)cnc1Nc1cncnc1 [Example 209, 6-Cyclopropyl-3-(pyrimidin-5-ylamino)-pyrazine-2-carboxylic acid (6-methoxymethyl-2-methylcarbamoyl-pyridin-3-yl)-amide] | 3.7
CNC(=O)c1cc(OCCOC)ccc1NC(=O)c1nc(C2CC2)cnc1Nc1cncnc1 [Example 214, 6-Cyclopropyl-3-(pyrimidin-5-ylamino)-pyrazine-2-carboxylic acid [4-(2-methoxy-ethoxy)-2-methylcarbamoyl-phenyl]-amide] | 1
CC(C)(O)CNC(=O)c1cc(OCCO)ccc1NC(=O)c1nc(C2CC2)cnc1Nc1cncnc1 [Example 215, 6-Cyclopropyl-3-(pyrimidin-5-ylamino)-pyrazine-2-carboxylic acid [4-(2-hydroxy-ethoxy)-2-(2-hydroxy-2-methyl-propylcarbamoyl)-phenyl]-amide] | 0.5
CNC(=O)c1cc(OCCO)ccc1NC(=O)c1nc(C2CC2)cnc1Nc1cncnc1 [Example 216, 6-Cyclopropyl-3-(pyrimidin-5-ylamino)-pyrazine-2-carboxylic acid [4-(2-hydroxy-ethoxy)-2-methylcarbamoyl-phenyl]-amide] | 0.8
CNC(=O)c1ncncc1NC(=O)c1nc(C2CC2)cnc1Nc1cncnc1 [Example 218, 5-{[6-Cyclopropyl-3-(pyrimidin-5-ylamino)-pyrazine-2-carbonyl]-amino}-pyrimidine-4-carboxylic acid methylamide] | 5.2
CCCN(CCC)C(=O)c1c(NC(=O)c2nc(C3CC3)cnc2Nc2cncnc2)cnn1C [Example 222, 6-Cyclopropyl-3-(pyrimidin-5-ylamino)-pyrazine-2-carboxylic acid (5-dipropylcarbamoyl-1-methyl-1H-pyrazol-4-yl)-amide] | 42.5
CCCCN(C)C(=O)c1c(NC(=O)c2nc(C3CC3)cnc2Nc2cncnc2)cnn1C [Example 223, 6-Cyclopropyl-3-(pyrimidin-5-ylamino)-pyrazine-2-carboxylic acid [5-(butyl-methyl-carbamoyl)-1-methyl-1H-pyrazol-4-yl]-amide] | 18.4

Results, then the compound that gave them:

IC50 [nM] | Structure (SMILES)
5.5 | O=C(Nc1cccnc1C(=O)N1CCC1)c1nc(C2CC2)cnc1Nc1cncnc1 [Example 194, 6-Cyclopropyl-3-(pyrimidin-5-ylamino)-pyrazine-2-carboxylic acid [2-(azetidine-1-carbonyl)-pyridin-3-yl]-amide]
16.4 | O=C(Nc1cccnc1C(=O)N1CCCCC1)c1nc(C2CC2)cnc1Nc1cncnc1 [Example 195, 6-Cyclopropyl-3-(pyrimidin-5-ylamino)-pyrazine-2-carboxylic acid [2-(piperidine-1-carbonyl)-pyridin-3-yl]-amide]
2.5 | O=C(Nc1cccnc1C(=O)N1CCCC1)c1nc(C2CC2)cnc1Nc1cncnc1 [Example 198, 6-Cyclopropyl-3-(pyrimidin-5-ylamino)-pyrazine-2-carboxylic acid [2-(pyrrolidine-1-carbonyl)-pyridin-3-yl]-amide]
6.2 | CCN(C)C(=O)c1ncccc1NC(=O)c1nc(C2CC2)cnc1Nc1cncnc1 [Example 199, 6-Cyclopropyl-3-(pyrimidin-5-ylamino)-pyrazine-2-carboxylic acid [2-(ethyl-methyl-carbamoyl)-pyridin-3-yl]-amide]
2650 | O=C(Nc1cncnc1C(=O)N1CCC1)c1nc(C2CC2)cnc1Nc1cncnc1 [Example 211, 6-Cyclopropyl-3-(pyrimidin-5-ylamino)-pyrazine-2-carboxylic acid [4-(azetidine-1-carbonyl)-pyrimidin-5-yl]-amide]
81.2 | O=C(Nc1cncnc1C(=O)N1CCCCC1)c1nc(C2CC2)cnc1Nc1cncnc1 [Example 212, 6-Cyclopropyl-3-(pyrimidin-5-ylamino)-pyrazine-2-carboxylic acid [4-(piperidine-1-carbonyl)-pyrimidin-5-yl]-amide]
52.3 | O=C(Nc1cncnc1C(=O)N1CCCC1)c1nc(C2CC2)cnc1Nc1cncnc1 [Example 219, 6-Cyclopropyl-3-(pyrimidin-5-ylamino)-pyrazine-2-carboxylic acid [4-(pyrrolidine-1-carbonyl)-pyrimidin-5-yl]-amide]
2.3 | CCNC(=O)c1ncccc1NC(=O)c1nc(C2CC2)cnc1Nc1cncnc1 [Example 220, 6-Cyclopropyl-3-(pyrimidin-5-ylamino)-pyrazine-2-carboxylic acid (2-ethylcarbamoyl-pyridin-3-yl)-amide]
4.9 | CC(C)NC(=O)c1ncccc1NC(=O)c1nc(C2CC2)cnc1Nc1cncnc1 [Example 221, 6-Cyclopropyl-3-(pyrimidin-5-ylamino)-pyrazine-2-carboxylic acid (2-isopropylcarbamoyl-pyridin-3-yl)-amide]
18.1 | CNC(=O)c1c(C)cccc1NC(=O)c1nc(C2CC2)cnc1Nc1cncnc1 [Example 224, 6-Cyclopropyl-3-(pyrimidin-5-ylamino)-pyrazine-2-carboxylic acid (3-methyl-2-methylcarbamoyl-phenyl)-amide]
